Assay results published in patent US10105552B2, “Formulations of histone deacetylase inhibitor and uses thereof” (Pharmacyclics LLC, priority 2009, dated 2018).

How the values were obtained:
tumor cell lines = test: Preclinical activity against tumor cell lines; format: cell-based; settings: many tumor cell lines
[1] = tested on: primary human tumors from patients with colon, ovarian, lung and many hematological cancers; test: Ex vivo activity in primary human tumors; format: cell-based
[2] = tested on: Neuroblastoma cell lines and patient-derived primary neuroblastoma cultures; test: Neuroblastoma cell viability, calcein AM assay; format: cell-based; settings: 48 hours treatment
Experimental: Neuroblastoma cell lines and patient-derived primary neuroblastoma cultures were treated with bortezomib, Compound 1 alone or a combination of both agents for 48 hours. Cells were also treated with HDAC inhibitors vorinostat, sodium butyrate, and valproic acid and viability was assessed by calcein AM assays. mRNA from treated cells was evaluated at 6 and 24 hours using U133+ mRNA expression arrays and Ingenuity analysis. Dichlorofluorescein (DCF) was used to measure reactive oxygen species (ROS). Cell viability assays were repeated in the presence of N-acetylcysteine (NAC). Western blot evaluated caspase-3 and PARP cleavage. Nude mice were injected with 10^7 SMS-KCNR cells subcutaneously and treated with daily doses of 0.5 mg/kg bortezomib, 12.5 mg/kg Compound 1, or a combination of the two agents. Tumors were measured and imaged twice per week.

[3] = Clinical trial PK of Compound 1 solution, oral and IV dosing; settings: human, in vivo, humans
Experimental: In clinical trials involving humans with cancer, Compound 1 in solution form was administered at 2 mg/kg as a single oral dose and as multiple 2-hour IV infusion doses.
Compound 1 appears to be preferentially absorbed in the intestines.

[4] = tested on: lung, colon, prostate, pancreatic and brain tumors; test: Preclinical mouse tumor models; format: in vivo
[5] = Phase 1 trial, safety/tolerability and response by oral dosing schedule; format: in vivo
Experimental: This is a Phase 1 dose-escalation study of the safety, pharmacokinetics, and pharmacodynamics of Compound 1, HCl administered orally in patients with advanced cancer.
In the Phase 1 dose escalation study, up to 7 cohorts will receive Compound 1, HCl orally at doses starting at 30 mg/m^2, approximately 4-6 hours apart, up to 90 mg/m^2, 2 or 3 times a day according to 3 different dosing schedules within 28 day cycle (5 days of dosing followed by 2 days of no dosing; 5 days of dosing followed by 9 days of no dosing; 7 days of dosing followed by 7 days of no dosing) until the maximum tolerated dose is reached.
The doses were given at the same time each day. […] The two doses were given at the same time each day, with the second dose being administered approximately 4 to 6 hours from the first dose.
In the event that a patient experiences a treatment-related decrease in platelets to <25,000 per mm^2, the severity of the thrombocytopenia may be ameliorated by dosing in cycles consisting 5 consecutive days of oral dosing followed by 9 consecutive days without dosing.

RAD51 = test: Pre-clinical models, DNA repair gene expression

SMILES	activity against tumor cell lines (tumor cell lines)	ex vivo activity in primary human tumors [1]	IC50 [2]	bioavailability ([3]; 2 mg/kg, immediate release capsules or an oral solution)	bioavailability ([3]; from AUC0-∞ oral vs IV, 2 mg/kg solution)	efficacy in mouse tumor models [4]	therapeutic effect ([5]; immediate release capsule, 2 or 3 consecutive doses each 4 to 6 hours apart on dosing days)	incidence of Grade 4 thrombocytopenia (platelet count <25,000 per mm^2) ([5]; in vivo, po)	pharmacodynamic response ([5]; solid tumor and lymphoma patients, cycles of 7 days oral dosing then 7 days without dosing)	effect on RAD51 (and other DNA repair genes) (RAD51)
CN(C)Cc1c(C(=O)NCCOc2ccc(C(=O)NO)cc2)oc2ccccc12 [Compound 1, N-hydroxy-4-{2-[3-(N,N-dimethylaminomethyl)benzofuran-2-ylcarbonylamino]ethoxy}-benzamide]	active	active	< 200 nM	~27%	~27%	efficacious	achieved	limited incidence	achieved	able to turn off RAD51
CC(C)C[C@H](NC(=O)[C@H](Cc1ccccc1)NC(=O)c1cnccn1)B(O)O [bortezomib, reference compound]	–	–	< 50 nM	–	–	–	–	–	–	–
